Measured values from US9359378B2, “Substituted oxazolo[3,4-a]pyrazines as pharmaceutcals” (BIOLAB SANUS FARMACÊUTICA LTDA., priority 2014, dated 2016).

How the values were obtained:
PDE11A4 = biological target: T1, PDE11A4 (Homo sapiens, UniProt Q9HCR9); experiment: PDE11A4 enzyme inhibition (HTRF, cAMP substrate); assay type: biochemical; details: human recombinant enzyme (Sf9); FIGS. 14 and 15; test concentration not given
T1 construct: host or cells: Sf9
Source text: (§1) The effects of the BL-230 and BL-236 compounds on the activity of the human enzymes PDE2A1, PDE3A, PDE4A1A, PDE4B1, PDE7A, PDE8A1, and PDE10A2 and PDE11A4 were quantified by measuring the production of adenosine 5′-monophosphate (5′AMP) from cyclic adenosine monophosphate (cAMP), with human recombinant enzyme expressed in Sf9 cells and the detection method was by using HTRF®.
(§2) The test compound, the reference compound or water (control) were mixed with the enzyme (the enzymes and their amounts used are described in Table 1) in a buffer containing 44.4 mM Tris-HCl, 5.28 mM MgCl2, 2.64 mM DTT and 0.044% Tween® 20 (pH 7.8). Then, the reaction was initiated by the addition of 40 nM of cAMP substrate and the mixture was incubated for 30 minutes at room temperature. For basal control measurements, the enzyme was omitted from the reaction mixture. The fluorescence acceptor (Dye2 labeled cAMP) and fluorescence donor (anti-cAMP antibody labeled with europium cryptate) were added in the presence of 1 mM IBMX. After 60 minutes, the fluorescence corresponding to the amount of transfer residual cAMP was measured at λex=337 nm, λem=620 nm and λem=665 nm using a microplate reader (RubyStar, BMG). The enzyme activity was determined by the signal division measured at 665 nm, by the measured signal at 620 nm (right). The results were expressed as a inhibition percentage of the control enzyme activity. […]

PDE3A = biological target: T2, PDE3A (Homo sapiens, UniProt Q14432); experiment: PDE3A enzyme inhibition (HTRF, cAMP substrate); assay type: biochemical; details: human recombinant enzyme (Sf9); FIGS. 14 and 15; test concentration not given
T2 construct: host or cells: Sf9
Source text: as §1, §2

[1] = test system: rabbit's corpus cavernosum; experiment: Relaxing effect in isolated rabbit's corpus cavernosum strips pre-contracted with phenylephrine (isometric tension); parameters: species or system New Zealand White rabbits; details: for tissue relaxation of phenylephrine-contracted corpus cavernosum: 1 μM compound, contraction induced by 1 μM phenylephrine (PE), FIGS. 8-10; for percentage of relaxation in rabbit's corpus cavernosum: FIGS. 12 and 13
Procedure: For this study, New Zealand White rabbits (2 to 3.5 kg) were used to obtain penile tissue which was excised and transferred to a chilled Krebs solution. For this study, we used cavernosum strips (CC) of the penile tissue of New Zealand White rabbits. The strips were mounted in 10 ml tissue incubation chambers containing Krebs solution at 37° C., pH occurring between 7.3 and 7.5; continuously bubbled with a mixture of 95% oxygen (O2) and 5% carbon dioxide (CO2). An initial tension of 10 mN were applied on the tissues, followed by a 60 minute stabilization period. Changes in tension (isometric force) were obtained using isometric transducers (ADInstruments, Australia) and recorded in a data acquisition system PowerLab 4/30 (Chart Software, version 7.3.7, ADInstruments, MA, USA for BL-230 and version 7.0 ADInstruments, MA for the BL-236). […] Cumulative curve responses to the concentration of BL-230 compounds and tadalafil (0.001 to 10 μM) were obtained in the pre-contracted rabbit corpus cavernosum strips with 1 μM PE.

PDE4D2 = biological target: T3, PDE4D2 (Homo sapiens, UniProt Q08499); experiment: PDE4D2 enzyme inhibition (HTRF, cAMP substrate); assay type: biochemical; details: human recombinant enzyme (Sf9); FIGS. 14 and 15; test concentration not given
T3 construct: host or cells: Sf9
Procedure: The effects of the BL-230 and BL-236 compounds on the activity of the human PDE4D2 enzyme were quantified by measuring the production from 5′ AMP cAMP using a human recombinant enzyme expressed in Sf9 cells and the method of detection used was the HTRF®.
The test compound, the reference compound or the water (control) were mixed with 0.75 U of PDE4D2 in a saline buffer solution balanced with Hanks (HBSS) (Invitrogen) supplemented, and 1.5 mM MgCl2, 0.1% bovine serum albumin (BSA). Then, the reaction was initiated by addition of 40 nM of cAMP substrate and the mixture is incubated for 15 minutes at 37° C. For basal control measurements, the enzyme was omitted from the reaction mixture. The fluorescence acceptor (Dye2 labeled cAMP) and fluorescence donor (anti-cAMP antibody labeled with europium cryptate) are added in the presence of 1 mM IBMX. After 60 minutes at room temperature, the fluorescence corresponding to the amount of transfer residual cAMP was measured at λex=337 nm, λem=620 nm and λem=665 nm using a microplate reader (Envision, Perkin Elmer). The enzyme activity was determined by the signal division measured at 665 nm, by the measured signal at 620 nm (ratio). The results were expressed as an inhibition percentage of the control enzyme activity. […]

[2] = strips pre-contracted with 1 μM PE

T1 sequence (Q9HCR9 whole entry): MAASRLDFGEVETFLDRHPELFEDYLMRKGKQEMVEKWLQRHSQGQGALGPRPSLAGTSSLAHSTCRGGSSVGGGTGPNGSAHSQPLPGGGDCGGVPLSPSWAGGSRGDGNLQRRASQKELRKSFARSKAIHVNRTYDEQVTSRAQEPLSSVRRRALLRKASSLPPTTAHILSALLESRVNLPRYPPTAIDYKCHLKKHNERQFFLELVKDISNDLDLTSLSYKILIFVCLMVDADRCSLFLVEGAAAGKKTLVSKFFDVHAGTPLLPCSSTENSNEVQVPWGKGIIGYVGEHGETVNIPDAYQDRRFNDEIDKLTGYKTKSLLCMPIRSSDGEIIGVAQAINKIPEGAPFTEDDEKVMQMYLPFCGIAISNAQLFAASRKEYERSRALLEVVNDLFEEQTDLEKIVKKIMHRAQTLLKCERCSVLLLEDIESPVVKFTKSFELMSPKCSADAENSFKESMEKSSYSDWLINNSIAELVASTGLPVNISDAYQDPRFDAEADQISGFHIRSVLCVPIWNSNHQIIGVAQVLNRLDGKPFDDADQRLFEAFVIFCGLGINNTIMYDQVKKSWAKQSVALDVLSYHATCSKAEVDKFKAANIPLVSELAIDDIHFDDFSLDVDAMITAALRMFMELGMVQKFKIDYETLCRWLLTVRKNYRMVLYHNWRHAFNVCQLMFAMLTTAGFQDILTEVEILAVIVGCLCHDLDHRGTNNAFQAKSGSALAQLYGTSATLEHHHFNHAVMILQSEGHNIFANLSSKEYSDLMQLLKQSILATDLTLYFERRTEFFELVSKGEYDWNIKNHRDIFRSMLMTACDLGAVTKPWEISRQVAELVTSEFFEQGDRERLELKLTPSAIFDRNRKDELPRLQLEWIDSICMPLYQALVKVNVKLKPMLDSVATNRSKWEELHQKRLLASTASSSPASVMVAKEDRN
T2 sequence (Q14432 whole entry): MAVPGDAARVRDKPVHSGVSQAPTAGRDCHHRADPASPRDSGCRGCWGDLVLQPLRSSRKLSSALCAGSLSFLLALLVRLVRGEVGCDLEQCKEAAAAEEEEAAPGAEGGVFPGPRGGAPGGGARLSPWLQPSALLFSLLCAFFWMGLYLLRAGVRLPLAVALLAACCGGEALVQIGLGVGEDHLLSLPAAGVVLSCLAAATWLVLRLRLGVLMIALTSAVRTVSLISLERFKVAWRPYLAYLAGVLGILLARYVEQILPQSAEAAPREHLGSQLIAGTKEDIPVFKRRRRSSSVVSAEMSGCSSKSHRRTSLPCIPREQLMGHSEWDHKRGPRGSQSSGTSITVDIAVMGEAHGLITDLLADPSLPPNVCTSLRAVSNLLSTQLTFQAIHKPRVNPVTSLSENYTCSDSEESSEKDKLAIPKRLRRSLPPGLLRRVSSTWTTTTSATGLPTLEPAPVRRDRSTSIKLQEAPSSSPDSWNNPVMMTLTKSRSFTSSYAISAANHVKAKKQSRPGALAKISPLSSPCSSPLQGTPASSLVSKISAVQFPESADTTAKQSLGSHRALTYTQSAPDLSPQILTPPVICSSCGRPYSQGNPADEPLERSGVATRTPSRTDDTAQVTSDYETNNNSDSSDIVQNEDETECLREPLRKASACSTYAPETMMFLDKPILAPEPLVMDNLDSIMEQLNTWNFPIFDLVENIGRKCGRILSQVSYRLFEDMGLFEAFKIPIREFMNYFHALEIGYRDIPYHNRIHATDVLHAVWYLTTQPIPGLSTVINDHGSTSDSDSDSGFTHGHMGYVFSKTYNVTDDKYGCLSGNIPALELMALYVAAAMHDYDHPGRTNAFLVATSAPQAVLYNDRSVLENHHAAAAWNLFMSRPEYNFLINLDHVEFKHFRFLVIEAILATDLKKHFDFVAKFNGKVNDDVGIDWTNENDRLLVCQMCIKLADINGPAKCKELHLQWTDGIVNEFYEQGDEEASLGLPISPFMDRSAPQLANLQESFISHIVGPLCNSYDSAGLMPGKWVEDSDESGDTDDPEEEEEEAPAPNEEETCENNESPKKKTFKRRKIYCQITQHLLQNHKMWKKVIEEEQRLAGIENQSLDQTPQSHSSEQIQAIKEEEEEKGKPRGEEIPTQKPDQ
T3 sequence (Q08499 303-809 limits assumed): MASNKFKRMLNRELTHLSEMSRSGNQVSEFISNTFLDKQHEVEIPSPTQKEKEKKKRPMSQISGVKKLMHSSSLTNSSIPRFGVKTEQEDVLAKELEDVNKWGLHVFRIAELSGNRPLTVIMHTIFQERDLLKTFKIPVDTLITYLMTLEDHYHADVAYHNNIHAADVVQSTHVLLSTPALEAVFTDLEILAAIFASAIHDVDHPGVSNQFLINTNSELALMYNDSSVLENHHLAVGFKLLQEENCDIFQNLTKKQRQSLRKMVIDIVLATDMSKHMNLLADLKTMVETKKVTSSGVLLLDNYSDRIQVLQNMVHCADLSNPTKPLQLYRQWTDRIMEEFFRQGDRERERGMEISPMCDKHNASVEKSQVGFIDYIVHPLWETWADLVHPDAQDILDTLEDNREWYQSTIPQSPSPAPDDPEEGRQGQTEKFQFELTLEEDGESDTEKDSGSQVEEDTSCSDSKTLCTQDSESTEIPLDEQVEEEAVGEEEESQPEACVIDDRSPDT

SMILES | inhibition of PDE11A4 enzyme activity (PDE11A4) [%] | melting point [°C] | inhibition of PDE3A enzyme activity (PDE3A) | tissue relaxation of phenylephrine-contracted corpus cavernosum [1] | cumulative concentration-response relaxation ([1]; 0.001 to 10 μM, strips pre-contracted with 1 μM PE, FIG. 11) | percentage of relaxation in rabbit's corpus cavernosum [1, 2] [%] | inhibition of PDE4D2 enzyme activity (PDE4D2)
O=C1C2=C(c3c[nH]c4ccccc34)OC(c3ccc4c(c3)OCO4)N2C(=O)CN1CCO (stereo not shown) [BL-230, 3-(benzo[d][1,3]dioxol-5yl)-7-(2-hydroxyethyl)-1-(1H-indol-3-yl)-6,7-dihydro-3H-oxazolo[3,4-a]pyrazine-5,8-dione] | 75 | 254 to 258 | did not inhibit | produced tissue relaxation shape similar to that of tadalafil | dose-dependent relaxation similar to that observed for tadalafil | 78.47 | 55%
C[C@@H](CO)N1CC(=O)N2C(=C(c3c[nH]c4ccccc34)OC2c2ccc3c(c2)OCO3)C1=O (stereo partly drawn) [BL-236, 3-(benzo[d][1,3]dioxol-5yl)-7-((S)1-hydroxypropan-2yl)-1-(1H-indol-3-yl)-6,7-dihydro-3H-oxazolo[3,4-a]pyrazine-5,8-dione] | 80 | 235 to 239 | did not inhibit | produced tissue relaxation shape similar to that of tadalafil |  | 93.05 | no inhibitory effect
